≈ marks a conversion by molar mass, not a printed value.
Legend:
[1] = Solubility of compound; format: physicochemical
[2] = system: HCT-116; assay: Antiproliferative activity against human HCT-116 cells by MTT assay
[3] = system: DU-145; assay: Antiproliferative activity against human DU-145 cells by MTT assay
[4] = system: A2780; assay: Antiproliferative activity against human A2780 cells by MTT assay
[5] = system: HCT-116; assay: Antiproliferative activity against human HCT-116 cells assessed as reduction in EdU positive cells at 0.25 uM; format: functional, cell-based
[6] = system: HCT-116; assay: Induction of cell cycle arrest in human HCT-116 cells assessed as increase in S-phase cells at 0.5 uM; format: functional
[7] = system: HCT-116; assay: Induction of cell cycle arrest in human HCT-116 cells assessed as increase in S-phase cells; format: functional, cell-based
[8] = system: HCT-116; assay: Induction of apoptosis in human HCT-116 cells assessed as viable cells at 0.5 uM by Annexin V-FITC/PI staining based assay (reference value: 96.76%); format: functional; settings: read-out: Activity
[9] = system: HCT-116; assay: Induction of apoptosis in human HCT-116 cells assessed as early apoptotic cells at 0.5 uM by Annexin V-FITC/PI staining based assay (reference value: 1.82%); format: functional
[10] = system: HCT-116; assay: Induction of apoptosis in human HCT-116 cells assessed as late apoptotic cells at 0.5 uM by Annexin V-FITC/PI staining based assay (reference value: 0.37%); format: functional
[11] = system: HCT-116; assay: Induction of apoptosis in human HCT-116 cells assessed as necrotic cells at 0.5 uM by Annexin V-FITC/PI staining based assay (reference value: 1.05%); format: functional
[12] = system: HCT-116; assay: Induction of apoptosis in human HCT-116 cells assessed as viable cells at 0.125 uM by Annexin V-FITC/PI staining based assay (reference value: 96.76%); format: functional; settings: read-out: Activity
[13] = system: HCT-116; assay: Induction of apoptosis in human HCT-116 cells assessed as early apoptotic cells at 0.125 uM by Annexin V-FITC/PI staining based assay (reference value: 1.82%); format: functional
[14] = system: HCT-116; assay: Induction of apoptosis in human HCT-116 cells assessed as late apoptotic cells at 0.125 uM by Annexin V-FITC/PI staining based assay (reference value: 0.37%); format: functional
[15] = system: HCT-116; assay: Induction of apoptosis in human HCT-116 cells assessed as necrotic cells at 0.125 uM by Annexin V-FITC/PI staining based assay (reference value: 1.05%); format: functional
[16] = system: HCT-116; assay: Induction of apoptosis in human HCT-116 cells assessed as viable cells at 0.25 uM by Annexin V-FITC/PI staining based assay (reference value: 96.76%); format: functional; settings: read-out: Activity
[17] = system: HCT-116; assay: Induction of apoptosis in human HCT-116 cells assessed as early apoptotic cells at 0.25 uM by Annexin V-FITC/PI staining based assay (reference value: 1.82%); format: functional
[18] = system: HCT-116; assay: Induction of apoptosis in human HCT-116 cells assessed as late apoptotic cells at 0.25 uM by Annexin V-FITC/PI staining based assay (reference value: 0.37%); format: functional
[19] = system: HCT-116; assay: Induction of apoptosis in human HCT-116 cells assessed as necrotic cells at 0.25 uM by Annexin V-FITC/PI staining based assay (reference value: 1.05%); format: functional
[20] = system: HCT-116; assay: Upregulation of H3K4me2 expression in human HCT-116 cells at 0.125 to 0.5 uM; format: functional, cell-based; settings: dose 0.125-0.5 µM
[21] = system: HCT-116; assay: Upregulation of H3K4me1 expression in human HCT-116 cells at 0.125 to 0.5 uM; format: functional, cell-based; settings: dose 0.125-0.5 µM
[22] = system: HCT-116; assay: Antitumor activity against human HCT-116 cells xenografted in nude mouse assessed as tumor growth inhibition at 60 mg/kg, ip measured every 3 days; format: functional; set-up: scale not given: the % may be the effect or the level left
[23] = Toxicity in nude mouse xenografted with human HCT-116 cells assessed as change in body weight at 60 mg/kg, ip; format: organism-based; settings: in vivo
[24] = system: A549; assay: cells; settings: Homo sapiens
Description: Antiproliferative activity against human A549 cells by MTT assay

[25] = system: MCF7; assay: cells; settings: Homo sapiens
Description: Antiproliferative activity against human MCF7 cells by MTT assay

[26] = system: MDA-MB-231; assay: cells; settings: Homo sapiens
Description: Antiproliferative activity against human MDA-MB-231 cells by MTT assay

[27] = system: HCT-116; assay: Induction of apoptosis in human HCT-116 cells assessed as viable cells at 1 uM by Annexin V-FITC/PI staining based assay (reference value: 96.76%); format: functional; settings: read-out: Activity
[28] = system: HCT-116; assay: Induction of apoptosis in human HCT-116 cells assessed as early apoptotic cells at 1 uM by Annexin V-FITC/PI staining based assay (reference value: 1.82%); format: functional
[29] = system: HCT-116; assay: Induction of apoptosis in human HCT-116 cells assessed as late apoptotic cells at 1 uM by Annexin V-FITC/PI staining based assay (reference value: 0.37%); format: functional
[30] = system: HCT-116; assay: Induction of apoptosis in human HCT-116 cells assessed as necrotic cells at 1 uM by Annexin V-FITC/PI staining based assay (reference value: 1.05%); format: functional
[31] = system: HCT-116; assay: Induction of apoptosis in human HCT-116 cells assessed as viable cells at 2 uM by Annexin V-FITC/PI staining based assay (reference value: 96.76%); format: functional; settings: read-out: Activity
[32] = system: HCT-116; assay: Induction of apoptosis in human HCT-116 cells assessed as early apoptotic cells at 2 uM by Annexin V-FITC/PI staining based assay (reference value: 1.82%); format: functional
[33] = system: HCT-116; assay: Induction of apoptosis in human HCT-116 cells assessed as late apoptotic cells at 2 uM by Annexin V-FITC/PI staining based assay (reference value: 0.37%); format: functional
[34] = system: HCT-116; assay: Induction of apoptosis in human HCT-116 cells assessed as necrotic cells at 2 uM by Annexin V-FITC/PI staining based assay (reference value: 1.05%); format: functional

| SMILES | solubility [1] [mg/mL] | IC50 [2] [µM] | IC50 [3] [µM] | IC50 [4] [µM] | IC50 [24] [µM] | IC50 [25] [µM] | IC50 [26] [µM] | other results |
| --- | --- | --- | --- | --- | --- | --- | --- | --- |
| O=C(N/N=C1\CCc2c(Cl)ccc(O)c21)c1cccc(S(=O)(=O)N2CCOCC2)c1 | 0.029 (≈ 64.5 µM) | 0.5 | 2.5 |  | 1 | 0.5 | 2.8 |  |
| O=C(N/N=C1\CCc2c(O)ccc(O)c21)c1cccc(S(=O)(=O)N2CCOCC2)c1 | 0.0469 (≈ 109 µM) | 0.9 | 7.6 | 1.6 | 1.4 | 0.6 | 3.2 |  |
| C/C(=N\NC(=O)c1cccc(S(=O)(=O)N2CCN(C)CC2)c1)c1cc(Cl)ccc1O [SECLIDEMSTAT] | 0.0357 (≈ 79.2 µM) | 0.6 | 10.5 | 2.4 | 2.7 | 0.4 | 1.1 | Activity [6]: 63%; viability at 0.5 µM [8]: 92.1%; Activity [9]: 3.22%; Activity [10]: 2.16%; Activity [11]: 2.48%; viability at 1 µM [27]: 93.5%; Activity [28]: 4.56%; Activity [29]: 0.64%; Activity [30]: 1.32%; viability at 2 µM [31]: 91.7%; Activity [32]: 5.44%; Activity [33]: 0.97%; Activity [34]: 1.87% |

More lines, main results first:

| solubility [1] [mg/mL] | IC50 [2] [µM] | IC50 [3] [µM] | IC50 [4] [µM] | IC50 [24] [µM] | IC50 [25] [µM] | IC50 [26] [µM] | SMILES | other results |
| --- | --- | --- | --- | --- | --- | --- | --- | --- |
| 0.0772 (≈ 168 µM) | 0.1 | 2.3 | 0.9 | 0.3 | 0.1 | 0.8 | CC1COCC(C)N1S(=O)(=O)c1cccc(C(=O)N/N=C2\CCc3c(O)ccc(O)c32)c1 (centres undefined) | Activity [5]: Active; At High Concentration Showed More Potent Activity Than Sp-2577; Activity [6]: 71%; Activity [7]: Dose-dependent-effect; viability at 0.5 µM [8]: 70.2%; Activity [9]: 25.6%; Activity [10]: 2.15%; Activity [11]: 2%; viability at 0.125 µM [12]: 86.1%; Activity [13]: 10.47%; Activity [14]: 2.73%; Activity [15]: 0.69%; viability at 0.25 µM [16]: 79.7%; Activity [17]: 17.28%; Activity [18]: 1.71%; Activity [19]: 1.28%; Activity [20]: Active; Slight Increase Observed; Activity [21]: Active; Slight Increase Observed; Activity [22]: 75%; Activity [23]: Non-toxic |
| 0.0239 (≈ 50 µM) | 0.5 | 9.2 | 0.5 | 0.5 | 0.6 | 0.9 | CC1COCC(C)N1S(=O)(=O)c1cccc(C(=O)N/N=C2\CCc3c(Cl)ccc(O)c32)c1 (centres undefined) |  |
| 0.0302 (≈ 68.1 µM) | 0.7 | 11.8 | 0.7 | 0.3 | 0.3 | 1 | CC1COCC(C)N1S(=O)(=O)c1cccc(C(=O)N/N=C2\CCc3cccc(O)c32)c1 (centres undefined) |  |
| 0.0279 (≈ 67.2 µM) | 0.4 | 1.9 | 0.9 | 0.9 |  | 2.9 | O=C(N/N=C1\CCc2cccc(O)c21)c1cccc(S(=O)(=O)N2CCOCC2)c1 |  |

Source: ChEMBL document CHEMBL6083239, “Synthesis, optimization and antitumor activity evaluation of sulfonyl benzoyl hydrazide derivatives as novel human LSD1 inhibitors” (Bioorg Med Chem Lett, 2024)
